From patent EP4772520A1, “NOVEL PRODRUG-TYPE ANTICANCER AGENT TARGETING CANCER-SPECIFIC ENZYME ACTIVITY” (priority 2023, dated 2025) come the findings set out here.

“Also recorded” adds a separate entry of the source.

Common to all, as to format: in vivo, mice
For data set [1], the system named is luciferase-expressing SKOV3 cells. The experiment in a line: Therapeutic experiment of SN38-βGal in SKOV3 ovarian cancer peritoneal dissemination model. The conditions noted are these: for body weight: 20 mg/kg i.p. 5 times a week; for tumor proliferation suppression effect: 20 mg/kg i.p. 5 times a week over 4 weeks and 3 days, vs Vehicle, 20 mg/kg. The procedure: Next, the therapeutic effect of SN38-βGal in the ovarian cancer peritoneal dissemination model was verified. Vehicle (DMSO) group (n = 5), SN38-βGal, and 20 mg/kg (n = 4) were set, and 20 mg/kg was intraperitoneally administered 5 times a week (2 days off) over 4 weeks and 3 days.
A specific procedure of the therapeutic experiment is shown below. • (1) 1.5 × 10^6 luciferase-expressing SKOV3 cells were intraperitoneally administered to BALB/cAJcl-nu/nu (7 weeks old). • (2) After one week, the formation of cancer was confirmed by luciferin/luciferase chemiluminescence. • (3) Intraperitoneal administration of the drug was started in a cycle in which the drug was administered to the mice in which formation of cancer was confirmed for five consecutive days within 1 week and the drug was withdrawn for 2 days. The drug was prepared by dissolving a 100 mM of DMSO stock in PBS, and administered in a total amount of 100 µL. • (4) On the evaluation day, 3 mg of luciferin potassium dissolved in 200 µL of PBS was intraperitoneally administered, and anesthetized with isoflurane, and then the luminescence value 15 minutes after the administration was measured with an in vivo imaging device. At the same time, the body weight was measured.
According to the same protocol as that of the first therapeutic experiment, Vehicle (DMSO) group (n = 5), SN38-βGal, and 20 mg/kg (n = 4) were set, and 20 mg/kg was intraperitoneally administered 5 times a week (2 days off) over 4 weeks and 3 days.

Data set [2] has as its system luciferase-expressing A549 cell. In words: Therapeutic experiment in A549 peritoneal dissemination model. On the procedure:
The therapeutic effect was verified using a peritoneal dissemination model using SN38-βGal. Whether the tumor suppression effect was confirmed was evaluated as compared with the Vehicle group (DMSO administration) by separating the SN38-βGal from the 10 mg/kg and 20 mg/kg administration groups.
n = 3 for each group, and evaluation was performed on luciferase-expressing A549 cell peritoneal dissemination model mice using BALB/cAJcl-nu/nu. The administration form was intraperitoneal administration (i.p.), and continuous administration was performed for 40 days. Tumor burden was determined by evaluating luciferin/luciferase chemiluminescence. An endpoint was a time point at which significant body weight loss (20% loss) or intraperitoneal hemorrhage was found.
A specific procedure of the therapeutic experiment is shown below. • (1) Luciferase expressing A549 cells 5 × 10^6 cells/mL (200 µL) was intraperitoneally administered to BALB/cAJcl-nu/nu (7 weeks old). • (2) After one week, the formation of peritoneal dissemination was confirmed by luciferin/luciferase chemiluminescence, and drug administration was started. 3 mg (200 µL) of luciferin was administered by intraperitoneal administration, and anesthetized with isoflurane. Thereafter, the chemiluminescent value at 20 minutes after administration was measured by an in vivo imaging device. The drug was prepared by dissolving a 100 mM of DMSO stock in PBS, and administered in a total amount of 100 µL. • (3) On the day of evaluation, the tumor burden was evaluated by luciferin/luciferase chemiluminescence. • (4) After completion of the treatment, gGlu-HMRG (10 µM, 500 µL PBS) was intraperitoneally administered, and 10 minutes later, the abdomen was opened, and the intestinal tract and the peritoneum were taken out. • (5) The seeded lesion was fluorescently imaged by an in vivo fluorescence imaging device, and comparison between the Vehicle and the administration group was performed.

For data set [3], the system named is mouse Lewis lung cancer-derived cell line LLC (3LL). In words: Combination experiment with anti-PD-1 antibody, LLC subcutaneous tumor model. The conditions noted are these: anti-PD-1 antibody 100 µg i.p. twice a week, SN38-βGlcNAc 150 mg/kg i.v. three times a week. On the procedure: The effect of combination use of an anti-PD-1 antibody and SN38-βGlcNAc used as a main cancer immunotherapy in current lung cancer treatment was examined. Subcutaneous tumor model mice of a mouse Lewis lung cancer-derived cell line LLC (3LL) reported to have sensitivity to the anti-PD-1 antibody were evaluated, and the Vehicle (DMSO) group was n = 8, the anti-PD-1 antibody administration group was n = 5, the SN38-βGlcNAc administration group was n = 6, and the combination use group of the anti-PD-1 antibody and the SN38-βGlcNAc was n = 5. As an antibody, anti-mouse PD-1 antibody Clone RMP1-14 (Leinco Technologies, Inc.) was used. […]
A specific procedure of the therapeutic experiment is shown below. • (1) Hair on the dorsal side from the upper part of the right foot of C57BL/6JJcl (7 weeks old, female) was shaved with a hair clipper, and then LLC cells 2.0 ×10^6 cells (50 µL) were subcutaneously injected. • (2) The drug administration was started to the individual whose tumor volume reached about 50 to 170 mm^3 after 6 days. […] The anti-PD-1 antibody (Clone RMP1-14) was administered by intraperitoneal administration of 100 µg dissolved in 100 µL of PBS. • (3) The body weight was measured on the day of evaluation, and the tumor volume was evaluated with a vernier caliper. • (4) The time point when the tumor volume reached 2000 to 3000 mm^3 was taken as the endpoint.

The test system of data set [4] is lung squamous carcinomas cell H226. In words: Tumor proliferation suppression test in H226 subcutaneous tumor model. The conditions noted are these: 200 mg/kg i.v. 3 times a week for 2 weeks, n = 5, vs Vehicle. The procedure: 200 mg/kg of SN38-βGlcNAc was intravenously administered 3 times a week for 2 weeks to subcutaneous tumor model mice of lung squamous carcinomas cell H226, and the tumor proliferation suppression effect was evaluated. The Vehicle (DMSO administration) group and the SN38-βGlcNAc administration group were n = 5, respectively.
The drug SN38-βGlcNAc was prepared by dissolving a 200 mM of DMSO stock in PBS, and was intravenously administered from the tail vein 3 times a week for 2 weeks at a dose of 200 mg/kg with a total amount of 100 µL. • (3) The body weight was measured on the day of evaluation, and the tumor volume was evaluated with a vernier caliper. • (4) Tumors were resected on day 19 from the start of dosing and their sizes were compared.

Regarding `CCc1c2c(nc3ccc(O[C@@H]4O[C@H](CO)[C@H](O)[C@H](O)[C@H]4O)cc13)-c1cc3c(c(=O)n1C2)COC(=O)[C@]3(O)CC` [SN38-βGal], the body weight entry in data set [1] (first experiment) is reported as “no significant body weight loss was found”; in data set [1] (second experiment), “no significant body weight loss was found”; in data set [2] (10 mg/kg i.p. group), “there was almost no difference from the Vehicle”; in data set [2] (20 mg/kg i.p. group), “a slight body weight loss was found in the 20 mg/kg group by Day 10 of administration”. Further, the results for the “tumor proliferation suppression effect” value in data set [1] (first experiment) and in data set [1] (second experiment) were “the tumor proliferation suppression effect was suggested again; also recorded: significantly suppressed tumor growth” and “the tumor proliferation suppression effect was confirmed again; also recorded: significantly suppressed tumor growth”, respectively. Also, the “tumor suppression effect (luciferin/luciferase chemiluminescence)” value in data set [2] (10 mg/kg and 20 mg/kg i.p., continuous administration for 40 days, vs Vehicle) was “the therapeutic efficacy of SN38-βGal in peritoneal dissemination model mice was confirmed”.

For the compound `CCc1c2c(nc3ccc(O[C@@H]4O[C@H](CO)[C@@H](O)[C@H](O)[C@H]4NC(C)=O)cc13)-c1cc3c(c(=O)n1C2)COC(=O)[C@]3(O)CC` [SN38-βGlcNAc], the body weight result in data set [3] is given as “no body weight loss was found in any group”. For the same compound, the “tumor proliferation suppression (tumor volume)” value in data set [3] (vs Vehicle) is recorded as “showed tumor proliferation suppression”. The “tumor proliferation suppression effect (tumor volume)” value in data set [4] is reported as “the tumor growth was almost completely suppressed”.
